We go through one compound from patent publication US8791128B2, “Compositions for treating or delaying the onset of hair loss” (University of Central Florida Research Foundation, Inc., priority 2008, dated 2014).

One data set deals with human NSCs. In words: Proliferation of human NSCs in culture. The class given is cell-based.
For data set [1], the system named is cells in the brain of rodents. Kind of data set: NBI-18 injections: cell proliferation and neurogenesis in rodent brain. The class given is in vivo.
The test system of data set [2] is BrdU positive cells of the epidermis. In words: Topical application study: BrdU immunohistochemistry of epidermis. It counts as in vivo, C57 BL/6 mice. How it is done: (§1) Based on the inventors' realizations, the decision was made to test NBI-18 in a topical application study to induce the genesis or re-growth of hair. Varying doses of NBI-18 [0.75 mg/ml, 1.5 mg/ml, 3.0 mg/ml, and control (50% ETOH)] was delivered in 5 ul drops to shaved locations on the back of C57 BL/6 mice. The varying doses were given 5 consecutive days and on day 4 and 5 BrdU (100 mg/kg, ip) was injected. […] NBI-18 has proven to produce a desired affect in rodent models that show a predominant re-growth of hair using the topical application of the small molecular pyrimidine compound known as NBI-18. We are hypothesizing that NBI-18 treatment will lead to greater cytogenesis and eventually lead to a commercial product that will eradicate hair loss. These studies will be further described in the Examples provided below.
In this study, the inventors determined a dose range where keratinogenesis occurs in healthy mice to help us learn about the fate of newly formed cells within the epidermis. […] In order for us to eliminate unnecessary anesthesia, our vehicle of delivery was 50% Ethanol (ETOH). NBI-18 was suspended in 50% ETOH using the concentrations of 0.75 mg/ml, 1.5 mg/ml, 3.0 mg/ml, and control (50% ETOH) respectively.
A. Two C57 BL/6 mice were selected for the topical application study of NBI-18. The mice were prepped by shaving four specific locations lateral/dorsal in a circular pattern. NBI-18 was delivered to the specified areas (right, counterclockwise from lowest to highest dose, then control) in concentrations of 1.5 mg/ml, 3.0 mg/ml, 6.0 mg/ml and control (50% ETOH) respectively. The solutions were applied to the center of these locations in a 5 ul dose for 5 consecutive days and on days 4 and 5 BrdU (100 mg/K, ip) was injected. On day 7 the mice were euthanized using a high dose pentobarbital (70 mg/kg, ip) and the treated epidermis was dissected and placed into 4% paraformaldehyde fixative for 48 hour
Immunohistochemistry of epidermis. Epidermal sections were mounted into square embedding molds with freezing medium (O.C.T. compound, Tissue Tek), sliced in 20 uM sections then mounted onto adhesive coated slides (Instrumedics, Inc) via tape transfer method. Slides were washed with PBS then placed in 2NHCL for 30 minutes to […]. Slides were then washed again with PBS, then blocked using 3% Donkey serum in PBST for 1 hour. Primary anti-body suspended in blocking solution used was anti-BrdU (sigma) at 1:1000 overnight in 4C. Slide were washed 3× then placed in secondary anti-body suspended in blocking solution, FITC (Jackson ImmunoResearch) at 1:500 for 2 hours at room temperature then washed with PBS. Slides were mounted using Vectashield with Dapi. […]

The subject of another data set is hair re-growth. Kind of data set: Topical application study: hair re-growth on shaved skin. It counts as in vivo, C57 BL/6 mice. Particulars: topical 0.75, 1.5, 3.0 mg/ml, 5 consecutive days. As for the experimental part:
as §1
B. Four C57 BL/6 mice were selected for the topical application study of NBI-18. The mice were prepped by shaving four specific locations lateral/dorsal in a circular pattern. NBI-18 was delivered to the specified areas (right, counterclockwise from lowest to highest dose, then control) in concentrations of 0.75 mg/ml, 1.5 mg/ml, and 3.0 mg/ml, and control (50% ETOH) respectively. The solutions were applied to the center of these locations in a 5 ul dose for 5 consecutive days and on days 4 and 5 BrdU (100 mg/K, ip) was injected. […]

Data set [3] is described as follows: Toxicity study (i.p., 7 days; rotarod, open field, postural reflex, forelimb placing). It counts as in vivo, C57 BL/6 mice. Particulars: 100, 300, 1000 mg/kg/day i.p. for 7 days. How it is done:
A total of 16 male C57 BL/6 mice (12 weeks old) weighing 25-30 g were used to investigate the toxicity of NBI-18. The mice were maintained on a 12-h light/dark cycle, and had free access to food and water through the study period. These animals were housed four per cage. In this study, animals were divided into four groups (four/group). Acute toxicity has been tested up to 1000 mg/kg. NBI-18 (0, 100, 300,1000 mg/kg/day, i.p.) was injected for 7 days and for the control group, the same volume of vehicle saline was injected. Bromodeoxyuridine (BrdU)(Sigma Chemical Co., St Louis, Mo.), was injected (100 mg/kg/day, i.p.) for the last three days (days 5-7). For behavioral testing, rotarod and open field tests were used to examine balance and coordination of mice before, during and after NBI-18 injection. Also, postural reflex and forelimb placing tests were performed to evaluate the neurological functions for the animals. All the animals were anesthetized with pentobarbital (i.p.) 48 h after the last BrdU injection and immediately per fused with 4% paraformaldehyde fixative. The brains were immediately dissected, post fixed for 24 h and processed for immunohistochemistry.
For orientation: Falling from the rotarod earlier than controls is read as motor impairment.

Data set [4] can be described thus: Ames test by a third party. As to conditions: third party company. The source says:
(§2) U.S. Pat. Nos. 4,959,368; 5,976,523. One derivative of interest is heterocyclic pyrimidine molecule referred to herein as ‘NBI-18’ (2-piperadino-6-methyl-5-oxo-5,6-dihydro-(7H) pyrrolo-[3,4-d]pyrimidine maleate; Mwt. 349.54). […] U.S. Patent Pub 20030139410. The mechanism of action of NBI-18 is not known, although some evidence implies the activation of the MAPK (mitogen activated protein kinase) pathway, a cascade that is also activated by peptide growth factors. […] NBI-18 has been tested in isolated animal models—axon growth in mice and muscle regeneration in rats—with no evidence of mechanistic details relating to function. Mechanism of action studies to find the drug target, are planned as part of our ongoing research. Upon learning about the availability of NBI-18 family of molecules, it was hypothesized that the compounds may be involved in the proliferation process of Stem Cells and the inventors decided to examine the possible implication for genesis of Keratinocyte Stem Cells (KSCs) or possibly the human bulge cells which provide the niche for KSCs, in animal models.
For orientation: In the Ames test, an excess of revertant colonies over the control signals mutagenicity.

Data set [5] can be described thus: Absorption and half-life in rodents (HPLC analysis). The class given is in vivo, rat.
Text: as §2

Data set [6] is described as follows: Extraction of NBI-18 from epidermis of treated mice. The class given is in vivo. As to conditions: 24 hours post-injection.
Text: as §2

For a further data set, the system named is rodent cortical neurons. Particulars: cited from earlier work.
The mark [7] stands for this setting: daily injections for five days, rodents.

Entries after “also recorded” stand apart in the source; their conditions may differ.

As to `CN1Cc2nc(N3CCCCC3)ncc2C1=O.O=C(O)/C=C\C(=O)O` [NBI-18, 2-piperadino-6-methyl-5-oxo-5,6-dihydro-(7H) pyrrolo-[3,4-d]pyrimidine maleate], the “proliferation of human NSCs” value with human NSCs was “stimulate the proliferation”. Also, in [1] (animal studies), the “dose dependence of the increase in proliferation” value is “dose dependent”. In addition, in data set [1] (daily injections for five days, at four weeks, young and aged rodents), the neurogenesis result is reported as “stable neurogenesis”. Moreover, in data set [1] (setting [7]), the pathological effects entry is recorded as “no discernible pathological effects” and the symptoms of toxicity result is recorded as “no symptoms of toxicity”. For the same compound, the “proliferation of cells in the brain” value in data set [1] (injections 5 mg/kg, rodents) is “increased proliferation”. Moreover, the “newly developed (BrdU) cells versus control” value in data set [2] (Example 3A, topical 1.5, 3.0, 6.0 mg/ml, 5 ul, 5 days, FIG. 1) is given as “mass increases of newly developed cells”. For the same compound, the “migration pattern of new cells” value in data set [2] (Example 3A, topical 1.5, 3.0, 6.0 mg/ml, FIG. 1) is on record as “alignment towards migration patterns”. Further, in [2] (topical 0.75, 1.5, 3.0 mg/ml in 50% ETOH), the “dose dependence of the elevation in BrdU positive stained cells” value is reported as “did not demonstrate a dose dependent increase”. In data set [2] (topical 0.75, 1.5, 3.0 mg/ml in 50% ETOH, 5 ul, 5 consecutive days), the “BrdU positive (proliferating) cells in comparison to control” value is reported as “abundant increase in proliferating cells; also recorded: vast increase; also recorded: dramatic elevation; also recorded: some varying levels of increase; also recorded: increases the number of BrdU positive cells”. In addition, the “time to re-growth of hair near to its original length” value in the data set on hair re-growth is recorded as at most 7 days. In addition, in the data set on hair re-growth (5 ul, shaved skin), the “hair re-growth in treated areas compared to control areas” value was “visibly complete hair growth; also recorded: visible re-growth of hair; also recorded: actual hair re-growth”. In data set [3], the “behavioral or neurological changes” value is recorded as “no immediate behavioral or neurological changes” and the symptoms of toxicity result is “no symptoms of toxicity”. The mutagenicity entry in data set [4] was “not mutagenic; also recorded: no mutagenesis or toxicity”. Further, in data set [5] (after intraperitoneal as well as oral administration, rodent studies), the absorption result is on record as “absorbed well”. Moreover, in data set [5] (general statement), the oral bioavailability result is given as “orally bioavailability”. The compound also displayed a t1/2 in data set [5] (rat circulation, HPLC analysis) of over 4 h. In addition, the presence in epidermis result in data set [6] is on record as “can be extracted”. In the data set with rodent cortical neurons (TUNEL assays), the rate of apoptosis result is listed as “reducing the rate of apoptosis”. Besides, the “activity in neuron culture” value in the data set on rodent cortical neurons (bFGF, nerve growth factor, EGF, insulin-like growth factor) is reported as “active primarily in the presence of various growth factors”. Also, the “survival of rodent cortical neurons” value in the data set on rodent cortical neurons was “promoted the survival”.
